Here are results for 24 compounds from patent US20090143419A1, “METHODS AND COMPOSITIONS FOR CONTROLLING ECTOPARASITES” (HATCHTECH PTY LTD, priority 2005, published 2009).

The test system of test [1] is lice eggs. The test can be described thus: Time-course in vitro lice egg hatching assay. The format is in vivo, clothing lice (Pediculus humanus humanus). Conditions: for effect on egg hatching: results not shown.
The subject of test [2] is Plutella xylostella eggs (Waite strain). In words: Egg hatching of Plutella xylostella.
Method: The egg masses were then placed in a humid box at 25 degrees until egg hatch. Control eggs were exposed to absolute methanol as described above. At day 6 post laying the eggs were assessed from the different treatments and the percentage of egg hatch determined relative to the control as shown in Table 9.
Batches of Plutella eggs that were laid on either fine cloth or parafilm were dipped in a specific inhibitor solution for between 2-10 seconds, the excess solution was drained by blotting with dry tissue paper. The egg masses were then placed in a humid box at 25 degrees until egg hatch. Control eggs were exposed to absolute methanol as described above or not treated. At day 6 post laying the eggs were assessed from the different treatments and the percentage of egg hatch determined relative to the controls as shown in Tables 10 and 11.
Batches of Plutella eggs that were laid on fine cloth were dipped in a specific inhibitor solution for approximately 2 seconds, the excess solution was drained by blotting with dry tissue paper. The egg masses were then placed in a humid box at 25 degrees until egg hatch. Control eggs were exposed to absolute methanol as described above or not treated. At day 6 post laying the eggs were assessed from the different treatments and the percentage of egg hatch determined relative to the control as shown in Table 12.
The egg masses were then placed in a humid box at 25 degrees until egg hatch. Control eggs were exposed to absolute ethanol as described above. On day 6 post laying the eggs were assessed from the different treatments and the percentage of egg hatch determined relative to the control.
The test system of test [3] is Helicoverpa armigera eggs (Tatura×Toowoomba strains). In words: Egg hatching of Helicoverpa armigera. The note with it: Table 15.
Method: Several hundred Helicoverpa armigera eggs (Tatura×Toowoomba strains) were collected, that had been laid on fine mesh cloth over a 24 hour period.
Batches of Helicoverpa eggs were exposed to a specific inhibitor solution for between 2-10 seconds the excess solution drained by blotting with dry tissue paper. The egg masses were then placed in a humid box at 25 degrees until egg hatch. Control eggs were exposed to absolute methanol as described above.
The subject of test [4] is lice hatching proteases in the egg shell washings (ESW). In words: Gelatine substrate SDS-PAGE of egg shell washings treated with protease inhibitors. Type of test: biochemical, Pediculus humanus humanus. Conditions: 3 hrs at 37° C. How it is done: Within 12 hours of hatching 50 body lice eggs (Pediculus humanus humanus) were removed from the hair and placed in a 1 ml eppendorf tube. 20 μL of distilled water was added to the unhatched eggs and the preparation incubated for 30 minutes at 32° C. The 20 μL was recovered, freeze dried and stored at −70° C. A number of other samples were also collected as described. Hair samples from which unhatched lice eggs had been removed were also collected and incubated as described above. In addition, a sample of unhatched eggs and a sample of hair from which lice eggs had been removed were collected 7 days post laying (within 24 hrs of egg hatching). Both samples were washed in 10 mls of a 1% solution of sodium hypochlorite for 1 minute followed by a 5×1 minute washes in 25 mls in distilled water to remove the hypochlorite. These samples were then incubated in 20 μL of distilled water as described above. In addition, a group of 25 lice eggs that were within 24 hours of hatching, were pretreated with 1% sodium hypochlorite, washed as described above and left to hatch. Within 1-2 hours after hatching the empty egg shells were incubated in 20 μL of distilled water as described above, the washings collected from the hatched egg shells and stored at −70° C. All of the extract samples were then freeze-dried overnight. The freeze-dried samples were then resuspended in 15 μL of non-reducing SDS sample buffer, centrifuged at 10,000 g for 2 minutes and the entire 15 μL loaded on to 10% gelatine substrate SD S-PAGE gels. Gels were run at 4° C. for 10 minutes at 10 mA followed by a further 25 minutes at 15 mA per gel. They were then incubated for 2×20 minutes in a 2.5% Triton-X 100 solution followed by a three hour incubation in 0.1M Tris/HCl containing 1 mM CaCl2 pH 8.0. Activity was detected as clear areas on the gel the result of protease activity degrading the gelatine within the gel.
10% SDS-PAGE gelatine substrate gels were loaded with freeze dried egg shell washings from 100 lice eggs that had been resuspended in 50 μl of non-reducing sample buffer with samples run at 10 μl per lane. Gels were run at 4° C. for 10 minutes at 10 mA per gel followed by a further 25 minutes at 15 mA per gel. Gels were then cut into strips and each strip incubated for 2×20 minutes in a 2.5% Triton-X 100 solution containing a specific inhibitor. The inhibitors used were the serine protease inhibitor PMSF (5 mM), the metalloprotease inhibitor 1,10-phenanthroline (10 mM), the aspartic protease Pepstatin (5 μM) and the cysteine inhibitor E-64 (10 μM). The gel strips were then incubated in 0.1M Tris/HCl containing 1 mM CaCl2 pH 8 containing the different protease inhibitors for 3 hrs at 37° C., before being stained in Coomassie blue and destained as previously described.

For test [5], the system named is lice eggs. The test can be described thus: Lice egg-hatch bioassay, eggs treated five days post laying. Type of test: in vivo, clothing lice (Pediculus humanus humanus). How it is done: To evaluate the potential effects of protease inhibitors on lice egg hatching it was necessary to develop a reliable in vitro bioassay. Male and female clothing lice were fed on a rabbit as previously described. […] During this period the female lice laid their eggs and attached them to the woven cloth. All lice would then be removed and the eggs permitted to incubate for the following 5 days. […] The eggs would then progress through to their final stages of development and hatch. In untreated control eggs a reliable average percentage hatch of between 85-95 percent was obtained using the in vitro egg hatch assay. […] Lice eggs were laid onto cloth as described above. […] Protease inhibitor solutions were typically prepared as stock solutions and added fresh at the appropriate concentration. Specifically stock solutions were prepared as follows: 1,10-phenanthroline (200 mM in methanol) and bestatin (5 mg/ml in methanol). In addition, the equivalent levels of the solvent were added to the non-inhibitor containing controls eggs to test for any buffer alone effects. Percentage hatch inhibition was calculated as the percentage reduction in egg hatch compared to the untreated control.

Setting [6] is: Table 10, 1 mM, eggs laid on cloth.
The mark [7] stands for this setting: Table 10, 10 mM, eggs laid on cloth.
[8] abbreviates: Table 11, 1 mM, eggs laid on parafilm.
The mark [9] stands for this setting: Table 12, 0.01 mM, cloth, dipped approximately 2 seconds.
Where [10] appears, read: Table 12, 0.1 mM, cloth, dipped approximately 2 seconds.
Where [11] appears, read: Table 12, 1 mM, cloth, dipped approximately 2 seconds.
The mark [12] stands for this setting: Table 12, 10 mM, cloth, dipped approximately 2 seconds.
Where [13] appears, read: Pediculus humanus, 5 mM, read-out: % Inhibition of lice egg hatching (maximum over the time-course).
Where [14] appears, read: Pediculus humanus, 5 mg/ml, read-out: % Inhibition of lice egg hatching (maximum over the time-course).

“Also recorded” adds a separate entry of the source. Structures can show the parent of a compound that is named as a salt. Where two headings read alike, the source gives them in different places. Square brackets hold non-standard residues; d marks the D form. Peptide text beside a SMILES is read from it. * marks the point of attachment. Sta = CC(C)C[C@H](N)[C@@H](O)CC(=O)O; Isovaleryl = CC(C)CC(=O)*; Cbz = O=C(OCc1ccccc1)*; NHOH = ON*

`c1ccc(-c2ccccn2)nc1` [2,2′-dipyridyl]: the “% Inhibition of lice egg hatching (maximum over the time-course)” value (from here on “% Inhibition of lice egg hatching”) with lice eggs [1] (10 mM) is 100%. Also, the “Ph (number of eggs partly hatched)” value in the test on lice eggs [1] (Table 5, […], per replicate) is reported as 0. Besides, in the test with lice eggs [1] (in vivo), the lice egg hatching result is listed as “completely inhibited”.
For the compound `c1ccc(-c2ccc3ccccc3n2)nc1` [2-(2-pyridinyl)quinoline], the % Inhibition (usually the relative decrease from the control value, in per cent) in test [2] (Table 16, 10 mM, relative to control (100% ETOH)) is “able to inhibit egg hatching”.
With `Cc1ccnc(-c2cc(C)ccn2)c1` [4,4′-dimethyl-2,2′-dipyridyl], the Number hatched in test [2] (setting [6]) came to 0; in test [2] (setting [7]) it was 0; in test [2] (setting [8]), 10; in test [2] (Table 11, 10 mM, eggs laid on parafilm) it was 0; in test [2] (setting [9]), 29; in test [2] (setting [10]), 33. The Number hatched in test [2] (setting [11]) was 0; in test [2] (setting [12]), 1; in test [3] (1 mM), 23; in test [3] (10 mM), 8. Also, the Number unhatched in test [2] (setting [6]) is reported as 30; in test [2] (setting [7]), 36; in test [2] (setting [8]), 121; in test [2] (setting [9]), 1; in test [2] (setting [10]), 18; in test [2] (setting [11]) it was 63. Moreover, the Number unhatched in test [2] (setting [12]) is given as 77; in test [3] (1 mM), 29; in test [3] (10 mM), 43. The “% Inhibition” value was 100% in test [2] (Table 10, 1 mM, eggs laid on cloth, relative to controls); 100% in test [2] (Table 10, 10 mM, eggs laid on cloth, relative to controls); 91% in test [2] (Table 11, 1 mM, eggs laid on parafilm, relative to controls); 100% in test [2] (Table 11, 10 mM, eggs laid on parafilm, relative to controls).
Regarding `O=C(O)CNC(=O)C(CS)Cc1ccccc1` [D-L thiorophan, reference compound], the “% Inhibition of lice egg hatching” value in the test with lice eggs [1] (1 mg/ml) amounted to 20%.
For `O=C(O)CN(CCN(CC(=O)O)CC(=O)O)CC(=O)O` [EDTA, reference compound], in the test with lice eggs [1] (100 mM), the “effect on egg hatching” value is given as “did not appear to have an effect”.
Take `O=C(O)CN(CCOCCOCCN(CC(=O)O)CC(=O)O)CC(=O)O` [EGTA, reference compound]: the “effect on egg hatching” value with lice eggs [1] (10 mM) is recorded as “did not appear to have an effect”.
For `CNC(=O)[C@H](Cc1c[nH]c2ccccc12)NC(=O)[C@@H](CC(=O)NO)CC(C)C` [GM 6001, reference compound], in the test with lice eggs [1] (concentration not given), the “% Inhibition of lice egg hatching” value was determined as 0%.
Turning to `CC(C)C[C@H](NC(=O)[C@H]1O[C@@H]1C(=O)O)C(=O)NCCCCN=C(N)N` [Inhibitor E-64], the “protease activity of the ESW” value in test [4] (10 μM inhibitor) is recorded as “No reduction in protease activity”.
For `CC(C)C[C@H](N)CS` [L-leucinthiol, reference compound], in the test on lice eggs [1] (setting [13]), the inhibition (usually the relative decrease from the control value, in per cent) at 5000 µM is 0%.
Turning to `CC(C)C[C@H](NC(=O)[C@@H]1CCCN1C(=O)OCc1ccccc1)C(=O)NCC(=O)NO` [N-CBZ-PRO-LEU-GLY hydroximate, reference compound] (Cbz-Pro-Leu-Gly-{NHOH}), the “% Inhibition of lice egg hatching” value in the test on lice eggs [1] (10 mM) is on record as 0%.
Take `O=S(=O)(F)Cc1ccccc1` [PMSF]: the “protease activity of the ESW” value in test [4] (5 mM inhibitor) was “No reduction in protease activity”.
Consider `CCCCC[C@H](CC(=O)NO)C(=O)N[C@H](C(=O)N1CCC[C@H]1CO)C(C)C` [actinonin, reference compound], for which the inhibition at 5000 µM in the test on lice eggs [1] (setting [13]) turned out to be 0%.
On the same count and under the same terms, with `CC(C)C[C@@H](N)[C@H](O)C(=O)N[C@H](C(=O)N[C@H](C(=O)N[C@@H](CC(=O)O)C(=O)O)C(C)C)C(C)C` [amastatin, reference compound] the figure was 26%.
For the compound `CC(C)C[C@H](NC(=O)[C@@H](O)[C@H](N)Cc1ccccc1)C(=O)O` [bestatin, reference compound], the lice egg hatching entry with lice eggs [5] (5 mM, eggs treated 5 days post laying) was “significantly inhibit lice egg hatching”. Also, the “inhibition of egg hatching” value in the test on lice eggs [5] (added within 24 hours of hatching) is “variable inhibition”. For the same compound, the inhibition at 5000 µM in the test on lice eggs [1] (setting [13]) came to 58%; in the test with lice eggs [1] (Pediculus humanus, 144 h, 5 mM, treated 144 hr post egg laying, read-out: Percent inhibition of egg hatching) it was 53%.
As to `C[C@H](CS)C(=O)N1CCC[C@H]1C(=O)O` [captopril, 1-[(2S)-3-mercapto-2-methyl-1-oxopropyl]-L-proline, reference compound], the inhibition at 23000 µM in the test on lice eggs [1] (Pediculus humanus, 23 mM, read-out: % Inhibition of lice egg hatching (maximum over the time-course)) turned out to be 27%.
As to `[H]/N=C(\N/C(=N/[H])NCCCCCCNC(=N)NC(=N)Nc1ccc(Cl)cc1)Nc1ccc(Cl)cc1` [chlorhexidine dihydrochloride, reference compound], in the test with lice eggs [1] (concentration not given), the “% Inhibition of lice egg hatching” value was determined as 0%.
Consider `C[C@H]1c2cccc(O)c2C(=O)C2=C(O)[C@]3(O)C(=O)C(C(N)=O)=C(O)[C@@H](N(C)C)[C@@H]3[C@@H](O)[C@@H]21` [doxycycline, reference compound], for which the “% Inhibition of lice egg hatching” value in the test on lice eggs [1] (5 mg/ml) stood at 69%. Besides, the inhibition at 5000 µg/mL in the test on lice eggs [1] (setting [14]) was determined as 65%.
For `CO[C@@H]1[C@H](OC(=O)/C=C/C=C/C=C/C=C/C(=O)O)CC[C@]2(CO2)[C@H]1[C@@]1(C)O[C@@H]1CC=C(C)C` [fumagillin, reference compound], the inhibition at 5000 µM in the test with lice eggs [1] (setting [13]) was 0%.
As for `CC(C)C[C@H](N)[C@](O)(Cc1cnc[nH]1)C(=O)O` [leuhistin, reference compound], in the test with lice eggs [1] (5 mM), the “% Inhibition of lice egg hatching” value came out at 0%.
For the compound `CN(C)c1ccc(O)c2c1C[C@H]1C[C@H]3[C@H](N(C)C)C(O)=C(C(N)=O)C(=O)[C@@]3(O)C(O)=C1C2=O` [minocycline, reference compound], the inhibition at 5000 µg/mL in the test on lice eggs [1] (setting [14]) is 55%.
Regarding `CC(C)C[C@H](NC(=O)[C@@H](O)[C@H](N)Cc1ccc([N+](=O)[O-])cc1)C(=O)O` [nitrobestatin, reference compound], in the test on lice eggs [1] (1 mg/ml), the “% Inhibition of lice egg hatching” value was determined as 0%.
Take `CC(C)CC(=O)N[C@H](C(=O)N[C@H](C(=O)N[C@@H](CC(C)C)[C@@H](O)CC(=O)N[C@@H](C)C(=O)N[C@@H](CC(C)C)[C@@H](O)CC(=O)O)C(C)C)C(C)C` [pepstatin] (Isovaleryl-VV[Sta]A[Sta]-OH): the “protease activity of the ESW” value in test [4] (5 μM inhibitor) is recorded as “did not show any reduction in protease activity; also recorded: No reduction in protease activity”.
`CC(C)C[C@H](NP(=O)(O)O[C@@H]1O[C@@H](C)[C@H](O)[C@@H](O)[C@H]1O)C(=O)N[C@@H](Cc1c[nH]c2ccccc12)C(=O)O` [phosphoramidon, N-(alpha-rhamnopyranosyloxy-hydroxyphosphinyl)-L-leucyl-L-tryptophan, reference compound]: the inhibition at 5000 µM in the test on lice eggs [1] (setting [13]) worked out at 41%.
For `CN(C)[C@@H]1C(O)=C(C(N)=O)C(=O)[C@@]2(O)C(O)=C3C(=O)c4c(O)cccc4[C@@](C)(O)[C@H]3C[C@@H]12` [tetracycline, reference compound], the inhibition at 5000 µg/mL in the test on lice eggs [1] (setting [14]) is 89%.
